PubChem BioAssay AID1963985 (Molecular Pharmacology Branch, DTP, NCI, 2024)

Tested on: 252836-082-R-J2-PDC tumor spheroids, viability
Test: Anticancer human tumor 252836-082-R-J2-PDC patient-derived head and neck squamous cell carcinoma cell line growth inhibition [PI3K]
Settings: spheroids with HUVEC and MSC; for viability, T/C: stronger effect = lower value
In short: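 Spheroid viability read-out. Co-cultures contained the tumor line plus HUVEC and human MSCs. Each agent was paired with a PI3K inhibitor (inavolisib, alpelisib, duvelisib, copanlisib) across half-log dilutions starting at clinical Cmax, or at 10 microM when Cmax was unknown.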

[1] = curve of first compound, second compound 0.00316 µM
[2] = curve of first compound, second compound 0.01 µM
[3] = curve of first compound, second compound 0.0316 µM
[4] = curve of first compound, second compound 0.1 µM
[5] = curve of first compound, second compound 0.316 µM
[6] = curve of first compound, second compound 1 µM
[7] = second compound 0.00316 µM, first compound 0.0316 µM
[8] = second compound 0.00316 µM, first compound 0.1 µM
[9] = second compound 0.00316 µM, first compound 0.316 µM
[10] = second compound 0.00316 µM, first compound 1 µM
[11] = second compound 0.00316 µM, first compound 3.16 µM
[12] = second compound 0.00316 µM, first compound 10 µM
[13] = second compound 0.01 µM, first compound 0.0316 µM
[14] = second compound 0.01 µM, first compound 0.1 µM
[15] = second compound 0.01 µM, first compound 0.316 µM
[16] = second compound 0.01 µM, first compound 1 µM
[17] = second compound 0.01 µM, first compound 3.16 µM
[18] = second compound 0.01 µM, first compound 10 µM
[19] = second compound 0.0316 µM, first compound 0.0316 µM
[20] = second compound 0.0316 µM, first compound 0.1 µM
[21] = second compound 0.0316 µM, first compound 0.316 µM
[22] = second compound 0.0316 µM, first compound 1 µM
[23] = second compound 0.0316 µM, first compound 3.16 µM
[24] = second compound 0.0316 µM, first compound 10 µM
[25] = second compound 0.1 µM, first compound 0.0316 µM
[26] = second compound 0.1 µM, first compound 0.1 µM
[27] = second compound 0.1 µM, first compound 0.316 µM
[28] = second compound 0.1 µM, first compound 1 µM
[29] = second compound 0.1 µM, first compound 3.16 µM
[30] = second compound 0.1 µM, first compound 10 µM
[31] = second compound 0.316 µM, first compound 0.0316 µM
[32] = second compound 0.316 µM, first compound 0.1 µM
[33] = second compound 0.316 µM, first compound 0.316 µM
[34] = second compound 0.316 µM, first compound 1 µM
[35] = second compound 0.316 µM, first compound 3.16 µM
[36] = second compound 0.316 µM, first compound 10 µM
[37] = second compound 1 µM, first compound 0.0316 µM
[38] = second compound 1 µM, first compound 0.1 µM
[39] = second compound 1 µM, first compound 0.316 µM
[40] = second compound 1 µM, first compound 1 µM
[41] = second compound 1 µM, first compound 3.16 µM
[42] = second compound 1 µM, first compound 10 µM
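Also: spheroids exposed to agents for seven days before readout.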
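For viability, T/C in this document: percent of vehicle DMSO control viability so 100% = untreated growth.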

## C[C@@H](NC(=O)c1ncnc(N)c1Cl)c1ncc(C(=O)Nc2cc(C(F)(F)F)c(Cl)cn2)s1 + CC(Nc1ccc2c(c1)OCCn1cc(N3C(=O)OCC3C(F)F)nc1-2)C(N)=O
[1]
  IC50: > 10 µM
[2]
  IC50: > 10 µM
[3]
  IC50: > 10 µM
[4]
  IC50: > 10 µM
[5]
  IC50: 4.55 µM
[6]
  IC50: < 0.0316 µM
[7]
  viability, T/C: 96.4%
[8]
  viability, T/C: 76.1%
[9]
  viability, T/C: 90.9%
[10]
  viability, T/C: 90.8%
[11]
  viability, T/C: 77.8%
[12]
  viability, T/C: 77.9%
[13]
  viability, T/C: 98.9%
[14]
  viability, T/C: 91.3%
[15]
  viability, T/C: 85.5%
[16]
  viability, T/C: 100%
[17]
  viability, T/C: 87.4%
[18]
  viability, T/C: 80.2%
[19]
  viability, T/C: 84.5%
[20]
  viability, T/C: 80.5%
[21]
  viability, T/C: 81.5%
[22]
  viability, T/C: 88.4%
[23]
  viability, T/C: 73.8%
[24]
  viability, T/C: 64%
[25]
  viability, T/C: 59.6%
[26]
  viability, T/C: 66.3%
[27]
  viability, T/C: 61.8%
[28]
  viability, T/C: 77.5%
[29]
  viability, T/C: 60.5%
[30]
  viability, T/C: 58.4%
[31]
  viability, T/C: 62.9%
[32]
  viability, T/C: 50.2%
[33]
  viability, T/C: 53.9%
[34]
  viability, T/C: 60.4%
[35]
  viability, T/C: 55.1%
[36]
  viability, T/C: 42.2%
[37]
  viability, T/C: 42.1%
[38]
  viability, T/C: 44.4%
[39]
  viability, T/C: 46.2%
[40]
  viability, T/C: 38.2%
[41]
  viability, T/C: 43.3%
[42]
  viability, T/C: 32.9%

## CC1(C)CCC(Nc2ncc(C(F)(F)F)c(-c3c[nH]c4c(P(C)(C)=O)c(C#N)ccc34)n2)CN1 (stereo unspecified)
Compound 0.0316 µM
  viability, T/C: 30.1% [middle of 4 runs]
Compound 0.1 µM
  viability, T/C: 29.5% [middle of 4 runs]
Compound 0.316 µM
  viability, T/C: 35.8% [middle of 4 runs]
Compound 1 µM
  viability, T/C: 33% [middle of 4 runs]
Compound 3.16 µM
  viability, T/C: 32.1% [middle of 4 runs]
Compound 10 µM
  viability, T/C: 7.06% [middle of 4 runs]
Curve of compound
  IC50: < 0.0316 µM

## CCCS(=O)(=O)Nc1ccc(F)c(C(=O)c2c[nH]c3ncc(-c4ccc(Cl)cc4)cc23)c1F + COc1c(OCCCN2CCOCC2)ccc2c3n(c(=NC(=O)c4cnc(N)nc4)nc12)CCN3
[1]
  IC50: 4.4 µM
[2]
  IC50: 4.97 µM
[3]
  IC50: 2.96 µM
[4]
  IC50: < 0.0316 µM
[5]
  IC50: < 0.0316 µM
[6]
  IC50: < 0.0316 µM
[7]
  viability, T/C: 88.2%
[8]
  viability, T/C: 92.8%
[9]
  viability, T/C: 80.6%
[10]
  viability, T/C: 90.1%
[11]
  viability, T/C: 67.2%
[12]
  viability, T/C: 7.48%
[13]
  viability, T/C: 71.8%
[14]
  viability, T/C: 73.6%
[15]
  viability, T/C: 72.9%
[16]
  viability, T/C: 87.5%
[17]
  viability, T/C: 79.7%
[18]
  viability, T/C: 8.12%
[19]
  viability, T/C: 64.8%
[20]
  viability, T/C: 57.6%
[21]
  viability, T/C: 67.9%
[22]
  viability, T/C: 59%
[23]
  viability, T/C: 49.8%
[24]
  viability, T/C: 9.78%
[25]
  viability, T/C: 32.3%
[26]
  viability, T/C: 39.8%
[27]
  viability, T/C: 43.3%
[28]
  viability, T/C: 43.3%
[29]
  viability, T/C: 31.7%
[30]
  viability, T/C: 4.74%
[31]
  viability, T/C: 16.1%
[32]
  viability, T/C: 15.8%
[33]
  viability, T/C: 16.7%
[34]
  viability, T/C: 19.4%
[35]
  viability, T/C: 18.1%
[36]
  viability, T/C: 1.83%
[37]
  viability, T/C: 5.69%
[38]
  viability, T/C: 5.15%
[39]
  viability, T/C: 7.11%
[40]
  viability, T/C: 7.02%
[41]
  viability, T/C: 5.99%
[42]
  viability, T/C: 1.31%
